What all share (format): in vivo
In one experiment the test system is mice. Put plainly: Mice Training in the Morris Water maze, Scopolamine memory impairment. The settings on record: intraperitoneally 35-40 minutes before training, with Scopolamine. As to the method:
Mice Training in the Morris Water maze. A round pool filled with water at 20-22° C. was used. There was a round ceramic platform of 14 cm height in the pool. Animals's (mice) behavior was registered with an automated computer video system in combination with software package of movement analysis Any-maze (Stoelting Co., CIIIA). Selection of mice suitable for training was carried out before the experiments. For this purpose the platform was placed 1 cm above the water level and an animal was put on the platform for 20 seconds. Then the mouse was sunk into the water on the opposite side of the pool, allowed to find the platform and climb it for 60 seconds, where it was left for 20 seconds. After that the mouse was repeatedly immersed into water on the opposite side of the pool and allowed to find the platform. If it failed in finding the platform within 60 seconds the experimentator helped it to find the platform and climb it. If the mice couldn't find the platform itself in two consecutive attempts it was excluded from the experiment. During the next two days the platform was placed 0.5 cm lower the water level. Every day the mice were given four attempts for finding the platform within 60 seconds. The time interval between the attempts was 20 seconds, during which the mice stayed on the platform. Every day before the first attempt the mice was placed on the platform for 20 seconds. […]

Another experiment concerns male mice of SHK line. Put plainly: Novel Object Recognition test, Scopolamine-disturbed recognition. The settings on record: 0.05 mg/kg and 0.2 mg/kg intraperitoneally 30 minutes before training; Scopolamine 1 mg/kg. The procedure: The test was carried out in aged male mice of SHK line. Plexiglass plus maze, consisted of 4 dead-end chambers (numbered 1, 2, 3, 4), joined together through the fifth central chamber, was used in experiments. Mouse was placed into central chamber and allowed to explore the maze. Floor was cleaned after each animal. The sequence of chamber entries and duration of visits were registered by observer. Test was ended after 13 entries into dead-end chambers. Criterion for entry was location of all animal's paws inside the chamber at the same time.
During the training an animal was placed in the maze with one equiform bowl in each side chamber. In the course of testing (one hour after training) two opposite standing bowls were replaced by identical flasks, and animal was allowed to explore the maze. The time spent by animal in each side chamber was registered during the periods of training and testing. Index of novel object recognition was calculated as ratio of time spent by animal in side chambers with novel objects to the total time spent by it in all side chambers. In comparison with the training phase the appearance of novel object extends the time spent by animal in the chamber with novel object (so-called effect of novel object recognition). The recognition of novel objects was disturbed under action of Scopolamine administered in 1 mg/kg dose intraperitoneally 30 minutes before training, and recognition index was decreased.

For another experiment, the system named is male mice of BALB/c line. Put plainly: Passive Avoidance of mice in the Shuttle Chamber, memory disturbed by Scopolamine. The conditions noted are these: 0.2 mg/kg, 30 minutes before training; retention after 24 hours. As to the method:
18.1.1. […] Experiments were carried out in aged male mice of BALB/c line weighing 20-25 grams or male rats of Vistar line weighing 200-250 g. A shuttle chamber (Ugo Basile, Italy) consisted of two sections was used. […] The sections were connected through a hole which could be overlapped by vertical door. The floor of the dark section was made of transverse metal bars on which DC current impulses could be fed. On the first day of experiment 30 minutes before training mice were injected […] with Scopolamine which causes memory disturbance. The animals of trial group were additionally injected with a compound of the general formula 1, for example, compound 1.1.1(4).HCl or 1.2.1(3).HCl, in doses of 0.2 mg/kg. The animals of control group were injected with physiological solution. Each group consisted of 8 animals. The animals were placed in the light section, and latent period of the first entry into the dark chamber was registered. Then the vertical door was closed and the animal was punished by 0.6 mA DC current for 3 seconds. After that the animal was taken back to its home cage. In 24 hours the same animal was placed again in the light section of the shuttle chamber and latent period of its first entry into the dark section, the total time of its stay in the light section and the number of entries into dark section was registered. Each monitoring lasted for 5 minutes. […]

Consider `CN1CCc2c(c3cc(S(=O)(=O)c4ccccc4)ccc3n2C)C1.Cl` [1.1.1(4)•HCl, 2,5-dimethyl-8-(phenylsulfonyl)-2,3,4,5-tetrahydro-1H-γ-carboline hydrochloride], for which the “effect on memory impairment caused by Scopolamine, Morris water maze” value in the experiment on mice is reported as “decreasing of memory impairment”. The “prevention of Scopolamine influence on novel object recognition” value in the experiment with male mice of SHK line was “could be prevented”. Besides, in the experiment on male mice of BALB/c line, the “effect on amnesia caused by Scopolamine, passive avoidance” value is listed as “decrease amnesia”.

Consider `CN1CCc2[nH]c3ccc(S(=O)(=O)Nc4cccc(F)c4)cc3c2C1.Cl` [1.2.1(3)•HCl, 2-methyl-2,3,4,5-tetrahydro-1H-γ-carboline-8-sulfonic acid 3-fluorophenyl amide hydrochloride], for which the “effect on memory impairment caused by Scopolamine, Morris water maze” value in the experiment on mice is reported as “decreasing of memory impairment”. For the same compound, in the experiment with male mice of SHK line, the “prevention of Scopolamine influence on novel object recognition” value is “could be prevented”. In addition, the “effect on amnesia caused by Scopolamine, passive avoidance” value in the experiment on male mice of BALB/c line is recorded as “decrease amnesia”.

For the origin of these results see patent US20120071493A1, “SUBSTITUTED 8-SULFONYL-2,3,4,5-TETRAHYDRO-1H-GAMMA-CARBOLINES, LIGANDS AND PHARMACEUTICAL COMPOSITION; METHOD FOR THE PRODUCTION AND USE OF SAME” (priority 2009, published 2012).
